“And” between values parts separate entries of the source, which are not always exact repeats. Identical values can stand only once.
Assays:
[1] = system: male NMR^1 mice; assay: Anorectic effect: consumption of condensed milk by fasted mice after administration by gavage; type: in vivo
Procedure: The anorectic effect was tested on male NMR^1 mice. After withdrawal of feed for 24 hours, the test product was administered by gavage. The animals were housed singly and had free access to drinking water and, 30 minutes after administration of the product, they were offered condensed milk. The consumption of condensed milk was determined, and the general behavior of the animals was inspected, every half hour for 7 hours. The measured milk consumption was compared with that of untreated control animals.

| SMILES | melting point | Reduction in the cumulative milk consumption as % of the controls ([1]; oral dose 50 mg/kg by gavage, compared with untreated control animals, 7 hours) | cumulative milk consumption by the treated animals ([1]; oral dose 50 mg/kg by gavage, feed withdrawn 24 hours, milk offered 30 minutes after administration, determined for 7 hours, 5 animals) | Remarks (general behavior / side effects of the animals) ([1]; oral dose 50 mg/kg, behavior inspected every half hour for 7 hours) |
| --- | --- | --- | --- | --- |
| Cl.Cn1c2c(sc1=NCC(=O)O)COc1ccc(F)cc1-2 | 256 °C |  |  |  |
| Br.CN=c1sc2c(n1C)-c1cccc(-c3ccc(C(F)(F)F)cc3)c1C2 | 231 °C and 230 to 233 °C |  |  |  |
| Br.c1ccc(Oc2ccc3c(c2)CC2=C3N3CCN=C3S2)cc1 [Example 24, 7-Phenoxy-4H,9H-2,3-dihydroimidazo[2,1-b]indeno[1,2-d]thiazole hydrobromide] |  | 93% | 5/0.30 ml | none |

More lines, main results first:

| melting point | SMILES | Reduction in the cumulative milk consumption as % of the controls ([1]; oral dose 50 mg/kg by gavage, compared with untreated control animals, 7 hours) | cumulative milk consumption by the treated animals ([1]; oral dose 50 mg/kg by gavage, feed withdrawn 24 hours, milk offered 30 minutes after administration, determined for 7 hours, 5 animals) | Remarks (general behavior / side effects of the animals) ([1]; oral dose 50 mg/kg, behavior inspected every half hour for 7 hours) |
| --- | --- | --- | --- | --- |
| 278 °C | Br.CN1C(=CN)SC2=C1c1ccc(Cl)cc1C2 |  |  |  |
| 250 to 252 °C and 251 °C | CN1C(=CN)SC2=C1c1ccc(Oc3ccc(Cl)cc3)cc1C2.Cl [Example 15, [6-(4-Chlorophenoxy)-3-methyl-3,8-dihydroindeno[1,2-d]thiazol-2-ylidene]methylamine hydrochloride] |  |  |  |

Reference: US20010011096A1, “Polycyclic thiazol-2-ylidene amines, processes for their preparation and their use as medicaments” (priority 1999, published 2001)
